US20100160369A1, “S1P1 Agonists and Methods of Making And Using” (EXELIXIS, INC., priority 2008, published 2010)

Experiments:
[1] = biological target: T1, hS1P1R (hEdg1) (Homo sapiens, UniProt P21453); assay: hS1P1R GTPγS Binding Assay (Assay 3a); assay type: biochemical
T1 construct: purchased Lonza
Method in brief: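 Human S1P1 receptor membranes (4 μg) incubated 1 h at room temperature with 30 μM GDP, 0.1 nM [35S]GTPγS, 0.25% fatty-acid-free BSA and serially diluted agonist in pH 7.9 Tris buffer with Mg2+ and EGTA. Bound radioactivity read by WGA SPA after a further 1 h; EC50 reported unless noted.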

[2] = biological target: S1P1 (Homo sapiens, UniProt P21453); assay: DELFIA GTP-Eu Binding Assay (Assay 3b); assay type: biochemical; parameters: purchased Lonza; host or cells: CHO cell membranes; settings: read-out: Assay 3b EC50
S1P1, sequence (P21453 whole entry): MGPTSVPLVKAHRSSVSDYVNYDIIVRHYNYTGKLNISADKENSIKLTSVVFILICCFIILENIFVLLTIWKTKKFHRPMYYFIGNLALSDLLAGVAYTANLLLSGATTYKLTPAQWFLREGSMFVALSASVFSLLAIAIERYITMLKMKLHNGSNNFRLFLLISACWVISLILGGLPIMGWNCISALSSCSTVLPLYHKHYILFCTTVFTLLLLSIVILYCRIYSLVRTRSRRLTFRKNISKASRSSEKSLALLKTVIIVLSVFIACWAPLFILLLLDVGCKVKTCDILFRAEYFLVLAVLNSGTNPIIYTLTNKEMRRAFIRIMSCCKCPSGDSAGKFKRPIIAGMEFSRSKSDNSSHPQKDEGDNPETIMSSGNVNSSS
Method: The DELFIA GTP-Eu binding assay (PerkinElmer) is a time-resolved fluorometric assay based on GDP-GTP exchange. CHO cell membranes (Lonza) expressing human S1P1 were incubated in 96-well filter plates (Pall, East Hills, N.Y.) in a final volume of 100 μL/well buffer containing 40 μg/mL membrane, 50 mM HEPES, 2 μM GDP, 10 mM MgCl2, 100 mM NaCl, 500 μg/mL Saponin and test compound. Test compounds were tested at maximum concentrations of 10 μM. Compounds were diluted (10 concentration points, 3-fold each) and added to the assay plate at a 1% final DMSO concentration. For each compound, there were duplicate assay plates and each assay plate had duplicate wells per concentration point. The plates were incubated for 30 min at room temperature on a plate shaker at low speed. GTP-Eu was added to each well (10 μL, 10 nM final concentration) and the plate was incubated for an additional 30 min with slow shaking The wells were washed with ice cold GTP washing buffer (3×150 μL) using a vacuum manifold and the assay plates read in an EnVision plate reader (PerkinElmer) at an excitation wavelength of 340 nm and an emission wavelength of 615 nm. To determine agonist activity, percent activity was calculated as [(test compound−background)/(positive control−background)*100], where background is the fluorescence in absence of compound and the positive control is the fluorescence from membranes incubated with 1 μM S1P (Avanti). The percent activities were plotted against compound concentration to determine IC50 or EC50 using XLFit (IDBS).
Assay 1 is the CNG cAMP Assay as described in Biological Example 1. Assay 2a and 2b are the Tango™ β-arrestin Recruitment Assay in HEK293 and U2OS cells, respectively, as described in Biological Example 2. Assay 3a is the hS1P1R GTPγS Binding Assay as described in Biological Example 3. Assay 3b is the GTP-Eu Binding Assay as described in Biological Example 3. EC50's were measured unless otherwise noted. […] In the table, “nt” means the Compound was not tested and “no” means the compound was tested but had no measurable activity under the assay conditions employed.

T1 sequence (P21453 whole entry): as above

O=C(O)CCc1cc(Cl)c(-c2noc(-c3cn4cc(C(F)(F)F)cc(Br)c4n3)n2)cc1F [Entry 49]
EC50 [1]: ≤ 100 nM | EC50 [2]: 100 to 500 nM

O=C(O)CCc1cc(Cl)c(-c2nnc(-c3cn4cc(C(F)(F)F)cc(Cl)c4n3)s2)cc1F [Example 176, 3-(5-chloro-4-{5-[8-chloro-6-(trifluoromethyl)imidazo[1,2-a]pyridin-2-yl]-1,3,4-thiadiazol-2-yl}-2-fluorophenyl)propanoic acid]
EC50 [1]: ≤ 100 nM | EC50 [2]: ≤ 100 nM

O=C(O)CCc1cc(Cl)c(-c2nnc(-c3cn4cc(C(F)(F)F)cc(Br)c4n3)s2)cc1F [Example 177, 3-(4-{5-[8-bromo-6-(trifluoromethyl)imidazo[1,2-a]pyridin-2-yl]-1,3,4-thiadiazol-2-yl}-5-chloro-2-fluorophenyl)propanoic acid]
EC50 [1]: ≤ 100 nM | EC50 [2]: ≤ 100 nM

CC(C)Oc1cc(Cl)c2nc(-c3nc(-c4cc(F)c(CCC(=O)O)cc4Cl)no3)cn2c1 [Example 301, 3-[5-chloro-4-(5-{8-chloro-6-[(1-methylethyl)oxy]imidazo[1,2-a]pyridin-2-yl}-1,2,4-oxadiazol-3-yl)-2-fluorophenyl]propanoic acid]
EC50 [1]: 100 to 500 nM | EC50 [2]: ≤ 100 nM

O=C(O)CCc1cc(Cl)c(-c2noc(-c3cn4cc(I)cc(Cl)c4n3)n2)cc1F [Example 302, 3-{5-chloro-4-[5-(8-chloro-6-iodoimidazo[1,2-a]pyridin-2-yl)-1,2,4-oxadiazol-3-yl]-2-fluorophenyl}propanoic acid]
EC50 [1]: 100 to 500 nM | EC50 [2]: ≤ 100 nM

O=C(O)CCc1cc(Cl)c(-c2noc(-c3cn4cc(C(F)(F)F)cc(Cl)c4n3)n2)cc1Cl [Example 242, 3-(2,5-dichloro-4-{5-[8-chloro-6-(trifluoromethyl)imidazo[1,2-a]pyridin-2-yl]-1,2,4-oxadiazol-3-yl}phenyl)propanoic acid]
EC50 [1]: ≤ 100 nM | EC50 [2]: ≤ 100 nM

C[C@H](CO)Oc1cc(Cl)c(-c2noc(-c3cn4cc(C(F)(F)F)cc(Cl)c4n3)n2)cc1F [Example 93, (2R)-2-[(5-chloro-4-{5-[8-chloro-6-(trifluoromethyl)imidazo[1,2-a]pyridin-2-yl]-1,2,4-oxadiazol-3-yl}-2-fluorophenyl)oxy]propan-1-ol]
EC50 [1]: ≤ 100 nM | EC50 [2]: ≤ 100 nM

O=C(O)CCc1cc(Cl)c(-c2nc(-c3cn4cc(C(F)(F)F)cc(Cl)c4n3)no2)cc1F [Example 233, 3-(5-chloro-4-{3-[8-chloro-6-(trifluoromethyl)imidazo[1,2-a]pyridin-2-yl]-1,2,4-oxadiazol-5-yl}-2-fluorophenyl)propanoic acid]
EC50 [1]: 100 to 500 nM | EC50 [2]: 100 to 500 nM

Cc1cc(CCC(=O)O)c(Cl)cc1-c1noc(-c2cn3cc(C(F)(F)F)cc(Cl)c3n2)n1 [Entry 56]
EC50 [1]: ≤ 100 nM | EC50 [2]: ≤ 100 nM

O=C(O)CCc1cc(Cl)c(-c2noc(-c3cn4cc(C(F)(F)F)cc(Cl)c4n3)n2)cc1F [Entry 24]
EC50 [1]: ≤ 100 nM | EC50 [2]: ≤ 100 nM

OCCOc1cc(Cl)c(-c2noc(-c3cn4cc(C(F)(F)F)cc(Cl)c4n3)n2)cc1F [Example 263, 2-[(5-chloro-4-{5-[8-chloro-6-(trifluoromethyl)imidazo[1,2-a]pyridin-2-yl]-1,2,4-oxadiazol-3-yl}-2-fluorophenyl)oxy]ethanol]
EC50 [1]: ≤ 100 nM | EC50 [2]: 100 to 500 nM

OCC(O)COc1cc(Cl)c(-c2noc(-c3cn4cc(C(F)(F)F)cc(Cl)c4n3)n2)cc1Cl (stereo not drawn) [Example 208, 3-[(2,5-dichloro-4-{5-[8-chloro-6-(trifluoromethyl)imidazo[1,2-a]pyridin-2-yl]-1,2,4-oxadiazol-3-yl}phenyl)oxy]propane-1,2-diol]
EC50 [1]: ≤ 100 nM | EC50 [2]: 100 to 500 nM
